“Also recorded” adds a separate entry of the source. Where two headings read alike, the source gives them in different places.
Test system: HUVECs
Experiment: Inhibition experiments: signalling inhibitors on LL-37/hCAP-18-induced endothelial proliferation
Format: cell-based, human
Description: Stimulation of angiogenesis by LL-37/hCAP-18 in vitro. a, In vitro proliferation assays. HUVECs were seeded on six well plastic dishes and cultivated in serum free medium. Different concentrations of LL-37/hCAP-18 and control peptides were added to the culture medium. Figures on the left hand side indicate the numbers of cells per µl of volume after 72 h. VEGF was used as positive control. […] A significance level of P < 0.05 is labeled with **.b. […] HUVECs were seeded on Matrigel support and cultivated in serum free medium in the absence (c) or presence (d) of 0.5 µg/ml LL-37/hCAP-18. After 18 h, the cultures were inspected for the formation of rings and cords. Representative figures are shown.
Endothelial cells from human umbilical veins (HUVEC) were isolated as described before ^8. 10^4 cells were seeded on six well plastic dishes in serum free medium. Different concentrations of LL-37 were added to the culture medium. VEGF (5 ng / ml, 165 amino acid variant, Sigma Chemicals, Munich, Germany) was used as positive control. After 72 h the cells were detached from the support and counted. Experiments were repeated ten times using synthetic LL-37/hCAP-18 (37 C-terminal amino acids) and the hexapeptide WKYMVm, wherein "m" denotes the D-form of the amino acid methionine, from two different sources (IPF Pharmaceuticals, Hannover, Germany and Institute for Biochemistry, Humboldt-University of Berlin, Germany). As control peptide we used the peptide L-14 […] to have any interactions with FPRL1 from the same source (Humboldt-University). Human serum (10 %, donor with ABO blood group O) was applied under the same conditions to analyze any impact on induction of proliferation by LL-37. For inhibition experiments we applied inhibitors of G-protein coupled receptors (pertussis toxin, 10 ng/ml), PI-3K (wortmannin), and PKC (GF 109203X). For Matrigel assays HUVECs were seeded on Matrigel support (Beckton Dickinson, Franklin Lakes, NJ) and cultivated in serum free medium in the absence or presence of 0.5 µg/ml LL-37. After 18 h, the cultures were inspected for the formation of rings and cords. Experiments were repeated three times. We measured the ability of LL-37/hCAP-18 to accelerate proliferation of HUVECs in a proliferation assay. […] WKYMVm is a specific agonist for FPRL1 ^10.
As a next step we analyzed which mechanisms might be involved in the angiogenic activity of LL-37/hCAP-18. We applied inhibitors of G-protein coupled receptors (pertussis toxin), PI-3K (wortmannin), and PKC (GF 109203X) and monitored cell proliferation as outcome parameter.

COC[C@H]1OC(=O)c2coc3c2[C@@]1(C)C1=C(C3=O)[C@@H]2CCC(=O)[C@@]2(C)C[C@H]1OC(C)=O [wortmannin] was tested, and the “effect of inhibitor on baseline cell proliferation” value was “no effect on the baseline measurements” and the “effect of inhibitor on proliferative response induced by LL-37/hCAP-18” value was “inhibition of the proliferative response; also recorded: inhibited activities of LL-37/hCAP-18 on endothelial proliferation”.

CN(C)CCCn1cc(C2=C(c3c[nH]c4ccccc34)C(=O)NC2=O)c2ccccc21 [GF 109203X] was tested, and the “effect of inhibitor on proliferative response induced by LL-37/hCAP-18” value (preincubation of endothelial cells with inhibitor (pertussis toxin 10 ng/ml)) was “inhibition of the proliferative response; also recorded: inhibited activities of LL-37/hCAP-18 on endothelial proliferation” and the “effect of inhibitor on baseline cell proliferation” value (without LL-37/hCAP-18) was “no effect on the baseline measurements”.

Source: patent publication EP1358888A1, “The human peptide antibiotic LL-37/hCAP-18 is an inducer of angiogenesis” (priority 2002, dated 2003)
